Patent US12590108B2, “Boracic acid compound” (Phaeno Therapeutics Co., Ltd, priority 2020, dated 2026)

What was measured:
Assay in all cases: MIC shift, liquid microdilution, meropenem fixed at 4 μg/mL
Format in all cases: cell-based
[1] = tested on: Escherichia coli ARLG-2829 (NDM-5, OXA-1); conditions: compound + meropenem fixed at 4 μg/mL; E. coli ARLG-2829 (urine clinical isolate), NDM-5, OXA-1
Method: (§1) The test compound was tested for minimum inhibitory concentration against three strains of Klebsiella pneumoniae ATCC BAA-1705 (KPC-2), ATCC BAA-2470 (NDM-1), and ARLG-1196 (CTM-1 group, SHV, NDM, TEM), and one strain of Escherichia coli ARLG-2829 (NDM-5, OXA-1). According to the requirements of the Institute of Clinical And Laboratory Standard (CLSI), the minimum inhibitory concentration (MIC) of each drug combination was determined by liquid microdilution method under the premise of fixing the concentration of meropenem at 4 μg/mL.
(§2) Preparation of compound mother plate: On the day of the experiment, the compound to be tested (the final concentration was 0.3125 to 20 μg/mL) and meropenem (the final concentration ranged from 1 to 64 μg/mL) were dissolved in a corresponding solvent (sterile ddH2O or DMSO) to form 100× mother liquors with the highest test concentration, and the compound to be tested and meropenem were then subjected to 2-fold series gradient dilution in a V-bottom 96-well plate to obtain 100× working solutions with the final concentration.
(§3) Preparation of inoculation solution: Fresh bacterial clones were picked from an overnight Mueller Hinton II Agar medium (MHA, Cat. No. 211438, BD BBLTM) plate, suspended in sterilized physiological saline, and adjusted to a concentration of 1×10^8 CFU/mL, and the suspension was further diluted to 5-10^5 CFU/mL with Cation-Adjusted Mueller Hinton II Broth (MHB, Catalog #212332, BD BBLTM).
(§4) Detection of minimum inhibitory concentration (MIC): 1 μL of the compound to be tested and the meropenem working solution were transferred to the corresponding wells to be tested in a round-bottomed 96-well plate (Catalog #3788, Corning), and 98 μL of the inoculation solution was added to the round-bottomed 96-well plate containing drugs, which was an MIC test plate; and after the plate was inverted and cultured at 37° C. for 20-24 h, the MIC value was read, and the minimum inhibitory concentration for inhibiting bacterial growth was defined as MIC.

[2] = tested on: Klebsiella pneumoniae ARLG-1196 (CTM-1 group, SHV, NDM, TEM); conditions: compound + meropenem fixed at 4 μg/mL; K. pneumoniae ARLG-1196, CTM-1 and isoforms thereof, SHV, NDM, TEM
Method: as §1, §2, §3, §4

[3] = tested on: Klebsiella pneumoniae ATCC BAA-1705 (KPC-2); conditions: compound + meropenem fixed at 4 μg/mL; K. pneumoniae ATCC BAA-1705, KPC-2
Method: as §1, §2, §3, §4

[4] = tested on: Klebsiella pneumoniae ATCC BAA-2470 (NDM-1); conditions: compound + meropenem fixed at 4 μg/mL; K. pneumoniae ATCC BAA-2470, NDM-1
Method: as §1, §2, §3, §4

MIC [1] [mg/L]	MIC [2] [mg/L]	MIC [3] [mg/L]	MIC [4] [mg/L]	Structure (SMILES)
>20	>20	0.0625	>20	CC1(C)Oc2ccc(F)c(C(=O)O)c2OB1O [Compound 1]
>20	>20	20	>20	COB1Oc2c(ccc(F)c2C(=O)O)OC1(C)C [Compound 2]
5	2.5	≤0.3125	5	COc1ccc2c(c1C(=O)O)OB(O)CO2 [Compound 3]
10	2.5	≤0.03	2.5	O=C(O)c1c(F)cc(Cl)c2c1OB(O)CO2 [Compound 4]
>20	10	≤0.3125	20	O=C(O)c1c(Cl)ccc2c1OB(O)CO2 [Compound 5]
20	10	≤0.03	10	O=C(O)c1c(F)c(F)cc2c1OB(O)CO2 [Compound 6]
>20	20	≤0.03	20	O=C(O)c1ccc(Cl)c2c1OB(O)CO2 [Compound 7]
20	10	≤0.3125	20	O=C(O)c1c(F)ccc2c1OB(O)CO2 [Compound 8]
>20	>20	≤0.3125	>20	COB1COc2ccc(F)c(C(=O)O)c2O1 [Compound 9]
10	2.5	≤0.03	5	O=C(O)c1cc(F)cc2c1OB(O)CO2 [Compound 10]
10	2.5	≤0.03	2.5	COc1cc(Cl)c2c(c1C(=O)O)OB(O)CO2 [Compound 11]
10	2.5	0.06	5	COc1c(Cl)c(Cl)c2c(c1C(=O)O)OB(O)CO2 [Compound 12]
10	2.5	≤0.3125	5	O=C(O)c1c2c(cc3c1O[B-](O)(O)CO3)CCCO2 [Compound 14]
10	5	0.625	5	COc1cc2c(c(C(=O)O)c1F)O[B-](O)(O)CO2 [Compound 16]
20	10	≤0.3125	10	Cc1ccc2c(c1C(=O)O)O[B-](O)(O)CO2 [Compound 17]
2.5	2.5	1.25	2.5	O=C(O)c1c(OCC2CC2)ccc2c1O[B-](O)(O)CO2 [Compound 20]
5	1.25	0.625	1.25	O=C(O)c1c(OC2COC2)ccc2c1O[B-](O)(O)CO2 [Compound 23]
5	1.25	0.625	2.5	CCCOc1ccc2c(c1C(=O)O)O[B-](O)(O)CO2 [Compound 29]
